In ChEMBL document CHEMBL1201862, “PubChem BioAssay data set” (2004):
Active and inactive are the calls of the source.

Legend:
[1] = biological target: T1, Tyrosine-protein phosphatase non-receptor type 11 (Homo sapiens, UniProt Q06124); assay: PTPN11 enzyme inhibitors – biochemical, selectivity assay for STEP inhibitor project, dose response (AID 602367); format: functional; settings: read-out: IC50_Mean
T1 sequence (Q06124 whole entry): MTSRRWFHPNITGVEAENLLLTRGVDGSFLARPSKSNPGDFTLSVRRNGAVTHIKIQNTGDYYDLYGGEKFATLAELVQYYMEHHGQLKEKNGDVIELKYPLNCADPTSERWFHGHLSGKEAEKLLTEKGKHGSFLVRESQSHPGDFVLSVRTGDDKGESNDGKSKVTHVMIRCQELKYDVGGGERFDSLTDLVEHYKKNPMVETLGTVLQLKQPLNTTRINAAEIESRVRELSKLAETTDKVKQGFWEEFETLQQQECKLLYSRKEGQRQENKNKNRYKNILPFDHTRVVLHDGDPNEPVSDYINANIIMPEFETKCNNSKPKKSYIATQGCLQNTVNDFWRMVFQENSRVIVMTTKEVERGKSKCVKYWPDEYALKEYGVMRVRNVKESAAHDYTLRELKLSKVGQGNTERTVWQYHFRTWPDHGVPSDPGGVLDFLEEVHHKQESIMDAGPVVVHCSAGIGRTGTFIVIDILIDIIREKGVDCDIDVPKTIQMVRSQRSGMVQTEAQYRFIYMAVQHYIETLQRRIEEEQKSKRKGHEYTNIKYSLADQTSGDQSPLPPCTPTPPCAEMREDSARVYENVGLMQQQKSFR

[2] = biological target: Dual specificity protein phosphatase 3 (Homo sapiens, UniProt P51452); assay: VHR1 phosphatase inhibitors, biochemical (AID 1878)
[3] = biological target: T2, Tyrosine-protein phosphatase non-receptor type 22 (Homo sapiens, UniProt Q9Y2R2); format: functional;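 also: confirmatory dose-response retesting of primary uHTS hits against LYP; potency is for inhibition of phosphatase activity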
T2 sequence (Q9Y2R2 whole entry): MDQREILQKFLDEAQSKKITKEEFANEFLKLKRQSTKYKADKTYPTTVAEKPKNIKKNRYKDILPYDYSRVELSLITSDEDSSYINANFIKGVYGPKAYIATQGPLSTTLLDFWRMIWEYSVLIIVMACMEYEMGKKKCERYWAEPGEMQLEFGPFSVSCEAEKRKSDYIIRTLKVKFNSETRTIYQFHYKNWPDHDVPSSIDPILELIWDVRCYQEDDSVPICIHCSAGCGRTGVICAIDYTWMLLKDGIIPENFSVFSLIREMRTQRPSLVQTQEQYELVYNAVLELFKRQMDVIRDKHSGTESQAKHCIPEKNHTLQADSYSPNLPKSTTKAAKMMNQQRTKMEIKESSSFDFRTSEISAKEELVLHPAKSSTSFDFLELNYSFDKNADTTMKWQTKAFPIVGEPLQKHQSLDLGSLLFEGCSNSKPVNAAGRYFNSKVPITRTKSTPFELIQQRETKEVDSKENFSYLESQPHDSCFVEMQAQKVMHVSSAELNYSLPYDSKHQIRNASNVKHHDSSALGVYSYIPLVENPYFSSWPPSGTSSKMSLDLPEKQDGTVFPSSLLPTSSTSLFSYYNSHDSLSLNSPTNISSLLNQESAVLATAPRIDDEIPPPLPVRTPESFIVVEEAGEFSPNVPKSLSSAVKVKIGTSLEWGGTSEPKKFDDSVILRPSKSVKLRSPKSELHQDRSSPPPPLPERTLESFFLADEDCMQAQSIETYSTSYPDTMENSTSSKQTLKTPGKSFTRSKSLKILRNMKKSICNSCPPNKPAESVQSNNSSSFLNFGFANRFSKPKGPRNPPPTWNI

Prothrombin = Prothrombin (Bos taurus, UniProt P00735); assay: thrombin protease inhibitors – biochemical, fluorescence polarization, uHTS hits, dose response (AID 602369); format: functional
[4] = biological target: T3, Tyrosyl-DNA phosphodiesterase 2 (Homo sapiens, UniProt O95551); assay: potency against TDP2 phosphodiesterase activity – biochemical, epi absorbance, IC50, dose response (AID 743297)
T3 sequence (O95551 whole entry): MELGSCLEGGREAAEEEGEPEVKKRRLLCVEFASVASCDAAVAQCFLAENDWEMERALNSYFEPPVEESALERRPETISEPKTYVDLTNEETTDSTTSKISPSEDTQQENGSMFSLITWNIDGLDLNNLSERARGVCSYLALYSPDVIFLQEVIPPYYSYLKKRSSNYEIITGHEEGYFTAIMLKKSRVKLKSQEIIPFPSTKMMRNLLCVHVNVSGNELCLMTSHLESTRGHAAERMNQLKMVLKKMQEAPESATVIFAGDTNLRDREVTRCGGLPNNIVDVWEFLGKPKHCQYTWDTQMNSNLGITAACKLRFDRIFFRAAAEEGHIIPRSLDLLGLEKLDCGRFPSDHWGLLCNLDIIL

Protein RecA = biological target: T4, Protein RecA (Mycobacterium tuberculosis, UniProt P9WHJ3); assay: Fluorescence Cell-Free Homogeneous Dose Retest to Identify Inhibitors of RecA-Intein Splicing Activity. [Related pubchem assays (depositor defined):AID2097, AID2223, AID489010, AID492950]; format: functional
T4 sequence (P9WHJ3 whole entry): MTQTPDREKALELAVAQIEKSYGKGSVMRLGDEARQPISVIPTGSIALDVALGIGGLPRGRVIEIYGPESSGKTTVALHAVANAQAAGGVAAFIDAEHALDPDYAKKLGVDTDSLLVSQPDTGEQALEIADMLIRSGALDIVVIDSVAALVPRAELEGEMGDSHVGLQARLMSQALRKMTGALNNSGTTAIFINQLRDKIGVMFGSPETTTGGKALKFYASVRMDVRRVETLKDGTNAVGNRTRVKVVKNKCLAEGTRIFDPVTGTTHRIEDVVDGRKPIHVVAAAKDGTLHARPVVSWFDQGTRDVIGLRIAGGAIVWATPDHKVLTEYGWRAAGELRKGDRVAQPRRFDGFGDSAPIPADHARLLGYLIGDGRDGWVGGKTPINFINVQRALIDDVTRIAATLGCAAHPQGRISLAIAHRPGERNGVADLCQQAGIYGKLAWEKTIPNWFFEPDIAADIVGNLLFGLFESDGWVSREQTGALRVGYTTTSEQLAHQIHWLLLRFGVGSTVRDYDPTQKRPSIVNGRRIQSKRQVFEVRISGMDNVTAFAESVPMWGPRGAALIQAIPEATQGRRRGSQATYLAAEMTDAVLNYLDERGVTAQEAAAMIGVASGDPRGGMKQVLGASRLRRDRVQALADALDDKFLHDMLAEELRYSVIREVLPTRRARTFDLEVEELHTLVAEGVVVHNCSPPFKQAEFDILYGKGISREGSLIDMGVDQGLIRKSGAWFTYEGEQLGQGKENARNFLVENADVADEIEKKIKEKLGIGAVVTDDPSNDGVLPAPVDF

Chain of Dual specificity protein phosphatase 3 (P51452 whole entry): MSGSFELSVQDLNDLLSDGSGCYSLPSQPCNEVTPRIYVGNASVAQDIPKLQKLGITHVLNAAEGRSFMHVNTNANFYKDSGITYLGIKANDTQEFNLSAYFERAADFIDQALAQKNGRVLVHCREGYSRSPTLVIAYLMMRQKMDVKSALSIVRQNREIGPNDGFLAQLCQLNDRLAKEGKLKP

SMILES: CCOC(=O)c1sc2nc3c(SCC(=O)O)cc(C(=O)c4ccccc4O)cn3c(=O)c2c1C
- IC50 [1]: 1.08 µM (active)
- IC50 [2]: 3.69 µM (active)
- IC50 [3]: < 1.24 µM (active)
- IC50 (Prothrombin): 56.6 µM (active)

SMILES: C=CCn1c(NC(=O)c2ccccc2Cl)c(C#N)c2nc3ccccc3nc21
- IC50 [4]: > 128 µM (inactive)

SMILES: CCOC(=O)c1ccc(Nc2cc3ccccc3c(O)n2)cc1
- EC50 (Protein RecA): 9.12 µM (active)
